Results reported in patent US20070149485A1, “SELECTED DOSAGE FOR THE TREATMENT OF CARDIOVASCULAR AND RELATED PATHOLOGIES” (Medicure International, Inc., priority 2005, published 2007).

Tested on: high-risk patients undergoing CABG surgery with cardiopulmonary bypass
Experiment: Cognitive function after CABG surgery, Mini Mental State Exam (MMSE), MEND-CABG trial
Type: in vivo, human
Conditions: for MMSE at POD 30, Mean / MMSE at POD 90, Mean: score 0-30
Experimental: The ability of P5P to protect against cognitive decline following CABG surgery was evaluated through the administration of a battery of validated psychometric tests pre-operatively, 4 days after surgery, 30 days after surgery, and 90 days after surgery.
A randomized, double-blind placebo-controlled, dose-ranging, parallel-arm multi-center study was undertaken, on high-risk patients undergoing CABG surgery with cardiopulmonary bypass.
Patients were identified as “high risk” if they had two or more of the following risk factors: • Age greater than 65 years; • Diabetes mellitus; • History of congestive heart failure; • History of a previous non-disabling stroke, transient ischemic attack, or carotid endarterectomy; • Prior CABG surgery; • Urgent CABG intervention defined as the need to stay in the hospital (although the patient may be operated on within a normal scheduling routine); • History of myocardial infarction that occurred more than 48 hours but less than 6 weeks prior to CABG surgery; and • Presence of at least one asymptomatic carotid artery stenosis (>50%) either in one or two carotid arteries.
Approximately 900 high risk pre-CABG patients in 42 different treatment centers in North America were screened and randomized to three groups of approximately 300 patients each, prior to their bypass surgery, as follows. Patients were either placed in a control group (placebo), treated with 250 mg/day of P5P, (250 mg/day), or treated with 750 mg/day of P5P (750 mg/day). The first dose of study medication was administered at 3-10 hours prior to CABG surgery. In the event of surgery delay or rescheduling, a second pre-operative dose of P5P was administered so that all patients received study medication 3-10 hours before surgery. Treatment continued for 30 days after surgery (post operative day (POD) 30). Patients received follow-up evaluations up to and including postoperative day (POD) 4, on POD 30 and on POD 90.
Patients were measured to assess change in cognitive function by the effects of P5P on neurological events following CABG surgery by methods of Mini Mental State Exam and psychometric testing (grooved pegboard).
MMSE is a well validated test to screen cognitive function (Folstein, J Psychiatr Res. 1975 Nov.;12(3):189-98). It measures orientation, registration (immediate memory), short-term (but not long-term) memory, and language functioning. The test is scored from 0-30, with scores of 25-30 considered normal, scores of 18-24 indicative of mild cognitive impairment, and scores under 17 indicative of severe impairment (Crum, JAMA. 1993 May 12;269(18):2386-91). This test is appropriate to indicate the presence of cognitive impairment.
The MMSE was administered to all 900 patients at screening, post-operative day (POD) 30, and POD 90. The MMSE score at POD 90 was analyzed using an analysis of covariance (ANOCO) model, adjusting for the MMSE score at screening. […] The results with P5P treatment (either 250 or 750 mg/day) were tabulated in Table 7, according to screening MMSE score.

Cc1ncc(COP(=O)(O)O)c(C=O)c1O [P5P, 3-hydroxy-2-methyl-5-[(phosphonooxy)methyl]-4-pyridine-carboxaldehyde]
MMSE at POD 90, Adjusted Mean (250 mg/day, MMSE screening = 25, ANOCO p 0.0067 vs placebo): 27.74
MMSE at POD 90, Adjusted Mean (250 mg/day, MMSE screening = 26, ANOCO p 0.0074 vs placebo): 28.08
MMSE at POD 90, Adjusted Mean (250 mg/day, MMSE screening = 27, ANOCO p 0.0116 vs placebo): 28.42
MMSE at POD 90, Adjusted Mean (250 mg/day, MMSE screening = 28, ANOCO p 0.0579 vs placebo): 28.76
MMSE at POD 90, Adjusted Mean (250 mg/day, MMSE screening = 29, ANOCO p 0.7654 vs placebo): 29.10
MMSE at POD 90, Adjusted Mean (250 mg/day, MMSE screening = 30, ANOCO p 0.2726 vs placebo): 29.44
MMSE at POD 30, Mean (250 mg/day): 28.57
MMSE at POD 90, Mean (250 mg/day): 28.97
MMSE at POD 90, Adjusted Mean (750 mg/day, MMSE screening = 25, ANOCO p 0.0664 vs placebo): 27.41
MMSE at POD 90, Adjusted Mean (750 mg/day, MMSE screening = 26, ANOCO p 0.0701 vs placebo): 27.83
MMSE at POD 90, Adjusted Mean (750 mg/day, MMSE screening = 27, ANOCO p 0.0875 vs placebo): 28.25
MMSE at POD 90, Adjusted Mean (750 mg/day, MMSE screening = 28, ANOCO p 0.1926 vs placebo): 28.67
MMSE at POD 90, Adjusted Mean (750 mg/day, MMSE screening = 29, ANOCO p 0.8350 vs placebo): 29.08
MMSE at POD 90, Adjusted Mean (750 mg/day, MMSE screening = 30, ANOCO p 0.4317 vs placebo): 29.50
MMSE at POD 30, Mean (750 mg/day): 28.79
MMSE at POD 90, Mean (750 mg/day): 28.99
protection against the decline in overall neurocognitive function associated with CABG surgery (MEND-CABG trial, 250 or 750 mg/day): provided protection
Improvements in MMSE score, 250 mg/day dose group compared with 750 mg/day dose group (in particular in patients with lower MMSE scores at screening): more significant
